Test results: US8741934B2, “Inhibitors of ion channels” (Pfizer Limited, priority 2007, dated 2014)

Target: T1, hSCN3A sodium channels (Homo sapiens, UniProt Q9NY46)
T1 construct: expressed in transfected cells
Assay: hSCN3A electrophysiology, Ionworks Quattro automated platform (Table C)
Assay type: cell-based
Settings: for inhibition at 3 µM / SCN3A % INHIB HTS IWQ 3 μM: 3 μM compound; for inhibition at 3 µM: read-out: SCN3A % INHIB HTS IWQ 3 μM; for inhibition at 10 µM / SCN3A % INHIB HTS IWQ 10 μM: 10 μM compound; for inhibition at 10 µM: read-out: SCN3A % INHIB HTS IWQ 10 μM
Summary of the method: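 HEK cells stably expressing hSCN3A were recorded in perforated-patch mode with 100 μg/ml amphotericin on Ionworks Quattro. The protocol used an inactivating step, a brief hyperpolarized partial recovery, then a depolarized test step. Inhibition was taken from current amplitude before versus after compound addition.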

T1 sequence (Q9NY46 whole entry): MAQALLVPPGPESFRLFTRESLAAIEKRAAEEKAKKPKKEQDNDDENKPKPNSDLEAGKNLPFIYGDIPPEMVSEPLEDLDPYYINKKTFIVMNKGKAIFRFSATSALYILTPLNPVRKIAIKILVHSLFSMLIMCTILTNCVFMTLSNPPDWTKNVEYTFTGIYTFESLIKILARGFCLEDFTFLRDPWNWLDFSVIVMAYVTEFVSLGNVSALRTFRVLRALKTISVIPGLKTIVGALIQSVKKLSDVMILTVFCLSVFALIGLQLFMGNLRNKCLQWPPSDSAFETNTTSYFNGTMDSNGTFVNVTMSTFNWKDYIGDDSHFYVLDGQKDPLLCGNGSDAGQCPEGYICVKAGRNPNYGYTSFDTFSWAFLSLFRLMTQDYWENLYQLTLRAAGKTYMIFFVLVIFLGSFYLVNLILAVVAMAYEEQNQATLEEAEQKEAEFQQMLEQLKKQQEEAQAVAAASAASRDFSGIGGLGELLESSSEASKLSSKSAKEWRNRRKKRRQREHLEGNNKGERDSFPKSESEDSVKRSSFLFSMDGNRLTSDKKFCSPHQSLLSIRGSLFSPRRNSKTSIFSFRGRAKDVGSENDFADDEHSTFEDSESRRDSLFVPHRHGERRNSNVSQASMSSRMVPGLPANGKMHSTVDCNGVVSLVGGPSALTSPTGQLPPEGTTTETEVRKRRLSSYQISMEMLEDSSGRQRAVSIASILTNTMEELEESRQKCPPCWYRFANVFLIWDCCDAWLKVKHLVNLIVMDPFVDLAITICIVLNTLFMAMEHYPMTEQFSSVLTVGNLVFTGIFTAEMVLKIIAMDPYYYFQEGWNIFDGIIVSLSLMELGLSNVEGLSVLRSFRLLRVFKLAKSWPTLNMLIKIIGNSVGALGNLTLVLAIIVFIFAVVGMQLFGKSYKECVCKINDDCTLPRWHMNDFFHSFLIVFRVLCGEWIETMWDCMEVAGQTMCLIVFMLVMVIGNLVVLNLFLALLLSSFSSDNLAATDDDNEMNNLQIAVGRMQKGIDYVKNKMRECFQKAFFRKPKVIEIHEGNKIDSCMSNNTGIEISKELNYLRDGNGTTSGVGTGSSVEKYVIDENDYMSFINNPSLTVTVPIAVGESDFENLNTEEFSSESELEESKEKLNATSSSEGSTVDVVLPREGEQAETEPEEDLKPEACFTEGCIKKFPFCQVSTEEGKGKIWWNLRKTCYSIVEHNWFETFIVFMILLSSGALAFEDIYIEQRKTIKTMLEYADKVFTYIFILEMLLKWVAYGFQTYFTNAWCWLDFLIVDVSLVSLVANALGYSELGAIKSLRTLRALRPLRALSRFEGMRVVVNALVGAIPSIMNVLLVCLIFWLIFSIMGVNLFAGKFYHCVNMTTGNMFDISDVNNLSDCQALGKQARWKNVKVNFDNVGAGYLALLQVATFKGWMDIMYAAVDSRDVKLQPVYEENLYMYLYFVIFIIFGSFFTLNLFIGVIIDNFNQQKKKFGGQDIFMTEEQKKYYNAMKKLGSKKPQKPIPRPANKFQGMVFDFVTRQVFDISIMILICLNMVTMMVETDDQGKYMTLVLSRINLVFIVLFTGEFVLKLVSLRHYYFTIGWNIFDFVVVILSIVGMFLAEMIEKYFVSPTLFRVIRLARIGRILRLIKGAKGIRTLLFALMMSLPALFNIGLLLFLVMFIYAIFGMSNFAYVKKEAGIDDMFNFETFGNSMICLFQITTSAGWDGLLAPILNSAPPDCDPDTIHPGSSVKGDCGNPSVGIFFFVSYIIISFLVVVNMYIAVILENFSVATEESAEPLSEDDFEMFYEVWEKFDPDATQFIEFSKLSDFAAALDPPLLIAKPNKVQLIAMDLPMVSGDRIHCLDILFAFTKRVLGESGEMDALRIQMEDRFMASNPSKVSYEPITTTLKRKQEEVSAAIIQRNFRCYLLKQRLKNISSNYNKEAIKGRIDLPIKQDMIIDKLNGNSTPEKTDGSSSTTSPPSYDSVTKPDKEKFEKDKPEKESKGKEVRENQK

Compound | inhibition at 3 µM [%] | inhibition at 10 µM [%] | SCN3A % INHIB HTS IWQ 3 μM [%] | SCN3A % INHIB HTS IWQ 10 μM [%]
O=C(N[C@@H]1COC[C@@H]1c1ccc(F)cc1)c1ccc(S(=O)(=O)Nc2nccs2)cc1 [Example 179, N-[(3S,4R)-4-(4-fluorophenyl)tetrahydrofuran-3-yl]-4-[(1,3-thiazol-2-ylamino)sulfonyl]benzamide] | 9.95 | 15.9 |  | 
Cc1cccc(CN2CCN(C(=O)c3ccc(S(=O)(=O)Nc4nccs4)cc3)CC2=O)c1 [Example 276, 4-{[4-(3-Methylbenzyl)-3-oxopiperazin-1-yl]carbonyl}-N-1,3-thiazol-2-yl-benzenesulfonamide] | 18.1 | 20.6 |  | 
CC[C@@H](NC(=O)c1ccc(S(=O)(=O)Nc2nccs2)cc1)c1ccccc1 [Example 150, N-[(1R)-1-phenylpropyl]-4-[(1,3-thiazol-2-ylamino)sulfonyl]benzamide] | -7.12 | 22.6 |  | 
CC(C)N(Cc1ccccc1)C(=O)c1ccc(S(=O)(=O)Nc2nccs2)cc1 [Example 187, N-benzyl-N-isopropyl-4-[(1,3-thiazol-2-ylamino)sulfonyl]benzamide] | 5.69 | 4.2 |  | 
Cc1cnc(NC(=O)c2ccc(S(=O)(=O)Nc3nccs3)cc2)c(C)c1 [Example 184, N-(3,5-dimethylpyridin-2-yl)-4-[(1,3-thiazol-2-ylamino)sulfonyl]benzamide] | 29 | 20.8 |  | 
CC(CNC(=O)c1ccc(S(=O)(=O)Nc2nccs2)cc1)Oc1ccccc1 (stereo not shown) [Example 161, N-(2-phenoxypropyl)-4-[(1,3-thiazol-2-ylamino)sulfonyl]benzamide] | 30.3 | 32.4 |  | 
COc1ccc(C2CC(CO)CN2C(=O)c2ccc(S(=O)(=O)Nc3nccs3)cc2)cc1 (stereo not shown) [Example 280, 4-{[4-(Hydroxymethyl)-2-(4-methoxyphenyl)pyrrolidin-1-yl]carbonyl}-N-1,3-thiazol-2-yl-benzenesulfonamide] | 13.2 | 17 |  | 
O=C(NCCc1ccc(F)cc1)c1ccc(S(=O)(=O)Nc2nccs2)cc1 [Example 102, N-[2-(4-fluorophenyl)ethyl]-4-[(1,3-thiazol-2-ylamino)sulfonyl]benzamide] | 22.4 | 37.2 |  | 
O=C(N[C@@H]1CCC[C@@H]1c1cc(F)cc(F)c1)c1ccc(S(=O)(=O)Nc2nccs2)cc1 [Example 128, N-[(1R,2R)-2-(3,5-difluorophenyl)cyclopentyl]-4-[(1,3-thiazol-2-ylamino)sulfonyl]benzamide] | 11.7 | -1.66 |  | 
CC(Cc1ccc(F)c(F)c1)NC(=O)c1ccc(S(=O)(=O)Nc2nccs2)cc1 (stereo not shown) [Example 151, N-[2-(3,4-difluorophenyl)-1-methylethyl]-4-[(1,3-thiazol-2-ylamino)sulfonyl]benzamide] | 17.4 | 12.7 |  | 
O=C(NCCOc1ccccc1)c1ccc(S(=O)(=O)Nc2nccs2)cc1 [Example 168, N-(2-phenoxyethyl)-4-[(1,3-thiazol-2-ylamino)sulfonyl]benzamide] | 31.4 | 39.3 |  | 
CC(C)(NC(=O)c1ccc(S(=O)(=O)Nc2nccs2)cc1)c1cccc(Cl)c1 [Example 127, N-[1-(3-chlorophenyl)-1-methylethyl]-4-[(1,3-thiazol-2-ylamino)sulfonyl]benzamide] | 28.9 | 28.7 |  | 
Cc1ccc(C2CCCCN2C(=O)c2ccc(S(=O)(=O)Nc3nccs3)cc2)cc1 (stereo not drawn) [Example 207, 4-{[2-(4-Methylphenyl)piperidin-l-yl]carbonyl}-N-1,3-thiazol-2-yl-benzenesulfonamide] |  |  | 27.25 | −16.86
Cc1cccc(CNC(=O)c2ccc(S(=O)(=O)Nc3nccs3)cc2)c1 [Example 71, N-(3-methylbenzyl)-4-[(1,3-thiazol-2-ylamino)sulfonyl]benzamide] | 38.8 | 37.1 |  | 
O=C(c1ccc(S(=O)(=O)Nc2nccs2)cc1)N1CCC(COCC2CC2)C1 (stereo not shown) [Example 269, 4-({3-[(Cyclopropylmethoxy)methyl]pyrrolidin-1-yl}carbonyl)-N-1,3-thiazol-2-yl-benzenesulfonamide] | 0.37 | 16.5 |  | 
CCC(NC(=O)c1ccc(S(=O)(=O)Nc2nccs2)cc1)c1ccc(F)cc1 (stereo not shown) [Example 142, N-[1-(4-fluorophenyl)propyl]-4-[(1,3-thiazol-2-ylamino)sulfonyl]benzamide] | 30.4 | 31.5 |  | 
O=C(c1ccc(S(=O)(=O)Nc2nccs2)cc1)N1CCCCC1Cc1ccccn1 (stereo not shown) [Example 244, 4-{[2-(Pyridin-2-ylmethyl)piperidin-1-yl]carbonyl}-N-1,3-thiazol-2-yl-benzenesulfonamide] | 14.2 | 21.9 |  | 
O=C(c1ccc(S(=O)(=O)Nc2nccs2)cc1)N1CCCC[C@@H]1c1ccccn1 [Example 261, 4-{[(2R)-2-pyridin-2-yl-piperidin-1-yl]carbonyl}-N-1,3-thiazol-2-yl-benzenesulfonamide] | 6.02 | 10.4 |  | 
O=C(c1ccc(S(=O)(=O)Nc2nccs2)cc1)N1CCCC(COc2ccccc2)C1 (stereo not shown) [Example 267, 4-{[3-(Phenoxymethyl)piperidin-1-yl]carbonyl}-N-1,3-thiazol-2-yl-benzenesulfonamide] | 30.1 | 23.1 |  | 
CCOc1ccccc1CNC(=O)c1ccc(S(=O)(=O)Nc2nccs2)cc1 [Example 89, N-(2-ethoxybenzyl)-4-[(1,3-thiazol-2-ylamino)sulfonyl]benzamide] | 14 | 48.2 |  | 
Cc1cccc(CC2CCCCN2C(=O)c2ccc(S(=O)(=O)Nc3nccs3)cc2)n1 (stereo not shown) [Example 242] |  |  | 13.78 | 8.48
COc1ccc(CC2(NC(=O)c3ccc(S(=O)(=O)Nc4nccs4)cc3)CC2)cc1 [Example 162, N-[1-(4-methoxybenzyl)cyclopropyl]-4-[(1,3-thiazol-2-ylamino)sulfonyl]benzamide] | 28 | 13.7 |  | 
Cc1ccnc(CC2CCCN2C(=O)c2ccc(S(=O)(=O)Nc3nccs3)cc2)c1 (stereo not shown) [Example 248, 4-({2-[(4-Methylpyridin-2-yl)methyl]pyrrolidin-1-yl}carbonyl)-N-1,3-thiazol-2-yl-benzenesulfonamide] | 20.1 | 14.7 |  | 
